As usually defined, the IC50 is the point on the concentration scale where inhibition reaches its midpoint.

T1 sequence (Q00987 1-188): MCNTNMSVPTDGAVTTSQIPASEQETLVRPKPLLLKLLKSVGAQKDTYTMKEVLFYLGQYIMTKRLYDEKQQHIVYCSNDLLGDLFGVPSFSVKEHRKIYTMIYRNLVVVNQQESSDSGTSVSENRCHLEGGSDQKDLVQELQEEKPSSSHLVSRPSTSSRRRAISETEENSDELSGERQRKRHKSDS

The experiment has as its target T1, human MDM2 (GST-hMDM2 1-188), interaction with biotinylated-p53 (1-83) (Homo sapiens, UniProt Q00987).
T1 construct: Amino acid residues 1-188 of human MDM2 were expressed; made in house; host or cells: Escherichia coli
Briefly: improved HTRF assay (HTRF2 assay), inhibition of HDM2-p53 interaction. The experiment is classed as binding. Conditions: 0.2 nM GST-hMDM2, 0.5 nM biotinylated-p53, 100 mM KF. The essentials:
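Time-resolved fluorescence (HTRF) read after >4 h equilibration with SA-XLent/anti-GST cryptate/KF detection reagents. Reaction: compound plus GST-hMDM2 for 20 min at room temperature, then E. coli-expressed biotinylated p53 residues 1-83 for 60 min, 2% DMSO final. Inhibition expressed versus nutlin-3.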
For orientation: TR-FRET usually uses a lanthanide donor and a delayed reading to cut background.
As for `CC(C)(C)S(=O)(=O)C[C@H](C1CC1)N1C(=O)[C@@H](CC(=O)O)O[C@H](c2cccc(Cl)c2)[C@H]1c1ccc(Cl)c(F)c1` (single isomer, unassigned) [Example 309, 2-((2R,5R,6R)-4-((S)-2-(tert-Butylsulfonyl)-1-cyclopropylethyl)-5-(4-chloro-3-fluorophenyl)-6-(3-chlorophenyl)-3-oxomorpholin-2-yl)acetic acid or 2-((2S,5R,6R)-4-((S)-2-(tert-butylsulfonyl)-1-cyclopropylethyl)-5-(4-chloro-3-fluorophenyl)-6-(3-chlorophenyl)-3-oxomorpholin-2-yl)acetic acid], half-maximal inhibition (IC50) required 1 nM.

With `CC(C)[C@@H](CS(=O)(=O)C(C)(C)C)N1C(=O)[C@@H](CC(=O)O)O[C@H](c2cccc(Cl)c2)[C@H]1c1ccc(Cl)c(F)c1` (single isomer, unassigned) [Example 310], the midpoint of inhibition, the IC50, lay at 1 nM.

Compound `CC(C)[C@@H](CS(=O)(=O)C(C)(C)C)N1C(=O)[C@@H](CC(=O)O)O[C@H](c2cccc(Cl)c2)[C@H]1c1ccc(Cl)c(F)c1` (single isomer, unassigned) [Example 311] came in with an IC50 of 5 nM.

Consider `CC(C)[C@@H](CS(=O)(=O)C(C)(C)C)N1C(=O)[C@@H](CC(=O)O)O[C@H](c2cccc(Cl)c2)[C@H]1c1ccc(Cl)c(F)c1` (single isomer, unassigned) [Example 312], for which the half-inhibitory concentration (IC50) is 279 nM.

Compound `CC(C)[C@@H](CS(=O)(=O)C(C)(C)C)N1C(=O)[C@@H](CC(=O)O)O[C@H](c2cccc(Cl)c2)[C@H]1c1ccc(Cl)c(F)c1` (single isomer, unassigned) [Example 313] displayed an IC50 of 38 nM.

`O=C(O)C[C@H]1O[C@H](c2cccc(Cl)c2)[C@@H](c2ccc(Cl)c(F)c2)N([C@H](CN(c2ccccc2F)S(=O)(=O)C2CC2)C2CC2)C1=O` (single isomer, unassigned) [Example 314, 2-((2R,5R,6R)-5-(4-Chloro-3-fluorophenyl)-6-(3-chlorophenyl)-4-((S)-1-cyclopropyl-2-(N-(2-fluorophenyl)cyclopropanesulfonamido)ethyl)-3-oxomorpholin-2-yl)acetic acid or 2-((2S,5R,6R)-5-(4-chloro-3-fluorophenyl)-6-(3-chlorophenyl)-4-((S)-1-cyclopropyl-2-(N-(2-fluorophenyl)cyclopropanesulfonamido)ethyl)-3-oxomorpholin-2-yl)acetic acid] came in with an IC50 of less than 1 nM.

`O=C(O)C[C@H]1O[C@H](c2cccc(Cl)c2)[C@@H](c2ccc(Cl)c(F)c2)N([C@H](CN(c2ccccc2F)S(=O)(=O)C2CC2)C2CC2)C1=O` (single isomer, unassigned) [Example 315, 2-((2R,5R,6R)-5-(4-Chloro-3-fluorophenyl)-6-(3-chlorophenyl)-4-((S)-1-cyclopropyl-2-(N-(2-fluorophenyl)cyclopropanesulfonamido)ethyl)-3-oxomorpholin-2-yl)acetic acid or 2-((2S,5R,6R)-5-(4-chloro-3-fluorophenyl)-6-(3-chlorophenyl)-4-((S)-1-cyclopropyl-2-(N-(2-fluorophenyl)cyclopropanesulfonamido)ethyl)-3-oxomorpholin-2-yl)acetic acid]: the IC50 is less than 1 nM.

Take `CC[C@@H](CS(=O)(=O)C(C)(C)C)N1C(=O)[C@@H](CC(=O)O)O[C@H](c2cccc(Cl)c2)[C@H]1c1ccc(Cl)cc1F` (single isomer, unassigned) [Example 316, 2-((2R,5R,6R)-4-((S)-1-(tert-Butylsulfonyl)butan-2-yl)-5-(4-chloro-2-fluorophenyl)-6-(3-chlorophenyl)-3-oxomorpholin-2-yl)acetic acid or 2-((2S,5R,6R)-4-((S)-1-(tert-butylsulfonyl)butan-2-yl)-5-(4-chloro-2-fluorophenyl)-6-(3-chlorophenyl)-3-oxomorpholin-2-yl)acetic acid]: half-maximal inhibition (IC50) was put at 2 nM. That is a single-digit nanomolar value.

For `CC[C@@H](CS(=O)(=O)C(C)(C)C)N1C(=O)[C@@H](CC(=O)O)O[C@H](c2cccc(Cl)c2)[C@H]1c1ccc(Cl)cc1F` (single isomer, unassigned) [Example 317, 2-((2R,5R,6R)-4-((S)-1-(tert-Butylsulfonyl)butan-2-yl)-5-(4-chloro-2-fluorophenyl)-6-(3-chlorophenyl)-3-oxomorpholin-2-yl)acetic acid or 2-((2S,5R,6R)-4-((S)-1-(tert-butylsulfonyl)butan-2-yl)-5-(4-chloro-2-fluorophenyl)-6-(3-chlorophenyl)-3-oxomorpholin-2-yl)acetic acid], the IC50 came to 3 nM.

`CC(C)(C)S(=O)(=O)C[C@H](C1CC1)N1C(=O)[C@@H](CC(=O)O)O[C@H](c2ccc(Cl)c(Cl)c2)[C@H]1c1ccc(Cl)cc1` (single isomer, unassigned) [Example 318, 2-((2R,5R,6R)-4-((S)-2-(tert-Butylsulfonyl)-1-cyclopropylethyl)-5-(4-chlorophenyl)-6-(3,4-dichlorophenyl)-3-oxomorpholin-2-yl)acetic acid or 2-((2S,5R,6R)-4-((S)-2-(tert-butylsulfonyl)-1-cyclopropylethyl)-5-(4-chlorophenyl)-6-(3,4-dichlorophenyl)-3-oxomorpholin-2-yl)acetic acid] showed an IC50 of 8 nM.

`CC(C)(C)S(=O)(=O)C[C@H](C1CC1)N1C(=O)[C@@H](CC(=O)O)O[C@H](c2ccc(Cl)c(Cl)c2)[C@H]1c1ccc(Cl)cc1` (single isomer, unassigned) [Example 319, 2-((2R,5R,6R)-4-((S)-2-(tert-Butylsulfonyl)-1-cyclopropylethyl)-5-(4-chlorophenyl)-6-(3,4-dichlorophenyl)-3-oxomorpholin-2-yl)acetic acid or 2-((2S,5R,6R)-4-((S)-2-(tert-butylsulfonyl)-1-cyclopropylethyl)-5-(4-chlorophenyl)-6-(3,4-dichlorophenyl)-3-oxomorpholin-2-yl)acetic acid] yielded a half-inhibitory concentration (IC50) of 113 nM.

As for `CC(C)(C)S(=O)(=O)C[C@H](C1CC1)N1C(=O)[C@@H](CC(=O)O)O[C@H](c2ccc(F)c(Cl)c2)[C@H]1c1ccc(Cl)cc1` (single isomer, unassigned) [Example 320, 2-((2R,5R,6R)-4-((S)-2-(tert-Butylsulfonyl)-1-cyclopropylethyl)-6-(3-chloro-4-fluorophenyl)-5-(4-chlorophenyl)-3-oxomorpholin-2-yl)acetic acid or 2-((2S,5R,6R)-4-((S)-2-(tert-butylsulfonyl)-1-cyclopropylethyl)-6-(3-chloro-4-fluorophenyl)-5-(4-chlorophenyl)-3-oxomorpholin-2-yl)acetic acid], the concentration for half-maximal inhibition (IC50) is 3 nM.

The compound `CC(C)(C)S(=O)(=O)C[C@H](C1CC1)N1C(=O)[C@@H](CC(=O)O)O[C@H](c2ccc(F)c(Cl)c2)[C@H]1c1ccc(Cl)cc1` (single isomer, unassigned) [Example 321, 2-((2R,5R,6R)-4-((S)-2-(tert-Butylsulfonyl)-1-cyclopropylethyl)-6-(3-chloro-4-fluorophenyl)-5-(4-chlorophenyl)-3-oxomorpholin-2-yl)acetic acid or 2-((2S,5R,6R)-4-((S)-2-(tert-butylsulfonyl)-1-cyclopropylethyl)-6-(3-chloro-4-fluorophenyl)-5-(4-chlorophenyl)-3-oxomorpholin-2-yl)acetic acid] returned an IC50 of 2 nM.

For the compound `CC(C)(C)SC[C@H](C1CC1)N1C(=O)[C@@H](CC(=O)O)O[C@H](c2ccc(Br)c(Cl)c2)[C@H]1c1ccc(Cl)cc1` (single isomer, unassigned) [Example 322, 2-((2R,5R,6R)-6-(4-Bromo-3-chlorophenyl)-4-((S)-2-(tert-butylthio)-1-cyclopropylethyl)-5-(4-chlorophenyl)-3-oxomorpholin-2-yl)acetic acid or 2-((2S,5R,6R)-6-(4-bromo-3-chlorophenyl)-4-((S)-2-(tert-butylthio)-1-cyclopropylethyl)-5-(4-chlorophenyl)-3-oxomorpholin-2-yl)acetic acid], the IC50 amounted to 51 nM.

For `CC(C)(C)SC[C@H](C1CC1)N1C(=O)[C@@H](CC(=O)O)O[C@H](c2ccc(Br)c(Cl)c2)[C@H]1c1ccc(Cl)cc1` (single isomer, unassigned) [Example 323, 2-((2R,5R,6R)-6-(4-Bromo-3-chlorophenyl)-4-((S)-2-(tert-butylthio)-1-cyclopropylethyl)-5-(4-chlorophenyl)-3-oxomorpholin-2-yl)acetic acid or 2-((2S,5R,6R)-6-(4-bromo-3-chlorophenyl)-4-((S)-2-(tert-butylthio)-1-cyclopropylethyl)-5-(4-chlorophenyl)-3-oxomorpholin-2-yl)acetic acid], it took 16 nM to reach half-maximal inhibition (IC50).

Compound `CC(C)(C)S(=O)(=O)C[C@H](C1CC1)N1C(=O)[C@@H](CC(=O)O)O[C@H](c2ccc(C#N)c(Cl)c2)[C@H]1c1ccc(Cl)cc1` (single isomer, unassigned) [Example 324, 2-((2R,5R,6R)-4-((S)-2-(tert-Butylsulfonyl)-1-cyclopropylethyl)-6-(3-chloro-4-cyanophenyl)-5-(4-chlorophenyl)-3-oxomorpholin-2-yl)acetic acid or 2-((2S,5R,6R)-4-((S)-2-(tert-butylsulfonyl)-1-cyclopropylethyl)-6-(3-chloro-4-cyanophenyl)-5-(4-chlorophenyl)-3-oxomorpholin-2-yl)acetic acid] displayed a half-inhibitory concentration (IC50) of 7 nM.

For the compound `CC(C)(C)S(=O)(=O)C[C@H](C1CC1)N1C(=O)[C@@H](CC(=O)O)O[C@H](c2ccc(C#N)c(Cl)c2)[C@H]1c1ccc(Cl)cc1` (single isomer, unassigned) [Example 325, 2-((2R,5R,6R)-4-((S)-2-(tert-Butylsulfonyl)-1-cyclopropylethyl)-6-(3-chloro-4-cyanophenyl)-5-(4-chlorophenyl)-3-oxomorpholin-2-yl)acetic acid or 2-((2S,5R,6R)-4-((S)-2-(tert-butylsulfonyl)-1-cyclopropylethyl)-6-(3-chloro-4-cyanophenyl)-5-(4-chlorophenyl)-3-oxomorpholin-2-yl)acetic acid], the IC50 stood at 4 nM.

(Values after patent US9376425B2, “Heterocyclic compounds as MDM2 inhibitors for the treatment of cancer” (AMGEN INC., priority 2011, dated 2016).)
